Assay results reported in the supplement of paper PMC10307832.

Tests used:
Assay in all cases: relative viability (nuclei count vs DMSO), 5 days (fraction); higher = more cells survive
SK-MES-1 = test system: SK-MES-1
In short: (§1)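 Values are medians from duplicate plates. Each reflects relative viability, defined as the nuclei count of treated wells over that of vehicle wells. Lung cancer cell lines in 1536-well plates were pin-tool dosed one day after seeding with one drug alone or with a fixed anchor-drug dose plus five library-drug doses (not always all listed) in √10 steps, then fixed, stained and imaged at 4× after 5 days.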

NCI-H2087 = test system: NCI-H2087
In short: as §1

COR-L23 = test system: COR-L23
In short: as §1

LXF-289 = test system: LXF-289
In short: as §1

NCI-H520 = test system: NCI-H520
In short: as §1

NCI-H2085 = test system: NCI-H2085
In short: as §1

NCI-H1651 = test system: NCI-H1651
In short: as §1

LU99A = test system: LU99A
In short: as §1

NCI-H1755 = test system: NCI-H1755
In short: as §1

NCI-H1993 = test system: NCI-H1993
In short: as §1

NCI-H1355 = test system: NCI-H1355
In short: as §1

BEN = test system: BEN
In short: as §1

PC-14 = test system: PC-14
In short: as §1

NCI-H1437 = test system: NCI-H1437
In short: as §1

NCI-H460 = test system: NCI-H460
In short: as §1

NCI-H1666 = test system: NCI-H1666
In short: as §1

HCC-44 = test system: HCC-44
In short: as §1

NCI-H1650 = test system: NCI-H1650
In short: as §1

NCI-H2170 = test system: NCI-H2170
In short: as §1

NCI-H1792 = test system: NCI-H1792
In short: as §1

CCNC(=O)c1noc(-c2cc(C(C)C)c(O)cc2O)c1-c1ccc(CN2CCOCC2)cc1 [Luminespib] + Nc1ncn([C@H]2C[C@H](O)[C@@H](CO)O2)c(=O)n1 [Decitabine] (partner 2 µM) gave a relative viability (SK-MES-1; first compound 0.002 µM) of 0.392, a relative viability (SK-MES-1; first compound 0.006325 µM) of 0.385 and a relative viability (SK-MES-1; first compound 0.02 µM) of 0.213. It also gave a relative viability (SK-MES-1; first compound 0.06325 µM) of 0.146, a relative viability (SK-MES-1; first compound 0.2 µM) of 0.147 and a relative viability (NCI-H2087; first compound 0.002 µM) of 0.25. For the same molecule, the relative viability (NCI-H2087; first compound 0.006325 µM) was 0.235, the relative viability (NCI-H2087; first compound 0.02 µM) was 0.189 and the relative viability (NCI-H2087; first compound 0.06325 µM) was 0.145. It also gave a relative viability (NCI-H2087; first compound 0.2 µM) of 0.101, a relative viability (COR-L23; first compound 0.002 µM) of 0.502 and a relative viability (COR-L23; first compound 0.006325 µM) of 0.374. The relative viability (COR-L23; first compound 0.02 µM) was 0.353, the relative viability (COR-L23; first compound 0.06325 µM) was 0.0888 and the relative viability (COR-L23; first compound 0.2 µM) was 0.0903. The relative viability (LXF-289; first compound 0.002 µM) was 0.397, the relative viability (LXF-289; first compound 0.006325 µM) was 0.354 and the relative viability (LXF-289; first compound 0.02 µM) was 0.424. The relative viability (LXF-289; first compound 0.06325 µM) was 0.392, the relative viability (LXF-289; first compound 0.2 µM) was 0.367 and the relative viability (NCI-H520; first compound 0.002 µM) was 0.533. The relative viability (NCI-H520; first compound 0.006325 µM) was 0.506, the relative viability (NCI-H520; first compound 0.02 µM) was 0.317 and the relative viability (NCI-H520; first compound 0.06325 µM) was 0.167. For the same molecule, the relative viability (NCI-H520; first compound 0.2 µM) was 0.152, the relative viability (NCI-H2085; first compound 0.002 µM) was 0.547 and the relative viability (NCI-H2085; first compound 0.006325 µM) was 0.577. For the same molecule, the relative viability (NCI-H2085; first compound 0.02 µM) was 0.519, the relative viability (NCI-H2085; first compound 0.06325 µM) was 0.486 and the relative viability (NCI-H2085; first compound 0.2 µM) was 0.346. For the same molecule, the relative viability (NCI-H1651; first compound 0.002 µM) was 0.612, the relative viability (NCI-H1651; first compound 0.006325 µM) was 0.553 and the relative viability (NCI-H1651; first compound 0.02 µM) was 0.594. It also gave a relative viability (NCI-H1651; first compound 0.06325 µM) of 0.469, a relative viability (NCI-H1651; first compound 0.2 µM) of 0.226 and a relative viability (LU99A; first compound 0.002 µM) of 0.953. The relative viability (LU99A; first compound 0.006325 µM) was 0.781, the relative viability (LU99A; first compound 0.02 µM) was 0.5 and the relative viability (LU99A; first compound 0.06325 µM) was 0.855. For the same molecule, the relative viability (LU99A; first compound 0.2 µM) was 0.879, the relative viability (NCI-H1755; first compound 0.002 µM) was 0.673 and the relative viability (NCI-H1755; first compound 0.006325 µM) was 0.691. The relative viability (NCI-H1755; first compound 0.02 µM) was 0.696, the relative viability (NCI-H1755; first compound 0.06325 µM) was 0.719 and the relative viability (NCI-H1755; first compound 0.2 µM) was 0.649. It also gave a relative viability (NCI-H1993; first compound 0.002 µM) of 0.596, a relative viability (NCI-H1993; first compound 0.006325 µM) of 0.579 and a relative viability (NCI-H1993; first compound 0.02 µM) of 0.48. For the same molecule, the relative viability (NCI-H1993; first compound 0.06325 µM) was 0.573, the relative viability (NCI-H1993; first compound 0.2 µM) was 0.371 and the relative viability (NCI-H1355; first compound 0.002 µM) was 0.359. The relative viability (NCI-H1355; first compound 0.006325 µM) was 0.354, the relative viability (NCI-H1355; first compound 0.02 µM) was 0.334 and the relative viability (NCI-H1355; first compound 0.06325 µM) was 0.346. The relative viability (NCI-H1355; first compound 0.2 µM) was 0.243, the relative viability (BEN; first compound 0.002 µM) was 0.84 and the relative viability (BEN; first compound 0.006325 µM) was 0.644. It also gave a relative viability (BEN; first compound 0.02 µM) of 0.458, a relative viability (BEN; first compound 0.06325 µM) of 0.306 and a relative viability (BEN; first compound 0.2 µM) of 0.294. For the same molecule, the relative viability (PC-14; first compound 0.002 µM) was 0.23, the relative viability (PC-14; first compound 0.006325 µM) was 0.21 and the relative viability (PC-14; first compound 0.02 µM) was 0.123. For the same molecule, the relative viability (PC-14; first compound 0.06325 µM) was 0.076, the relative viability (PC-14; first compound 0.2 µM) was 0.0786 and the relative viability (NCI-H1437; first compound 0.002 µM) was 0.606. It also gave a relative viability (NCI-H1437; first compound 0.006325 µM) of 0.605, a relative viability (NCI-H1437; first compound 0.02 µM) of 0.64 and a relative viability (NCI-H1437; first compound 0.06325 µM) of 0.428. It also gave a relative viability (NCI-H1437; first compound 0.2 µM) of 0.229, a relative viability (NCI-H460; first compound 0.002 µM) of 0.473 and a relative viability (NCI-H460; first compound 0.006325 µM) of 0.432. For the same molecule, the relative viability (NCI-H460; first compound 0.02 µM) was 0.0674, the relative viability (NCI-H460; first compound 0.06325 µM) was 0.0264 and the relative viability (NCI-H460; first compound 0.2 µM) was 0.0329. The relative viability (NCI-H1666; first compound 0.002 µM) was 0.701, the relative viability (NCI-H1666; first compound 0.006325 µM) was 0.676 and the relative viability (NCI-H1666; first compound 0.02 µM) was 0.715. The relative viability (NCI-H1666; first compound 0.06325 µM) was 0.71, the relative viability (NCI-H1666; first compound 0.2 µM) was 0.544 and the relative viability (HCC-44; first compound 0.002 µM) was 0.969. The relative viability (HCC-44; first compound 0.006325 µM) was 0.953, the relative viability (HCC-44; first compound 0.02 µM) was 0.959 and the relative viability (HCC-44; first compound 0.06325 µM) was 0.954. For the same molecule, the relative viability (HCC-44; first compound 0.2 µM) was 0.863, the relative viability (NCI-H1650; first compound 0.002 µM) was 0.463 and the relative viability (NCI-H1650; first compound 0.006325 µM) was 0.565. For the same molecule, the relative viability (NCI-H1650; first compound 0.02 µM) was 0.267, the relative viability (NCI-H1650; first compound 0.06325 µM) was 0.137 and the relative viability (NCI-H1650; first compound 0.2 µM) was 0.133. It also gave a relative viability (NCI-H2170; first compound 0.002 µM) of 0.468, a relative viability (NCI-H2170; first compound 0.006325 µM) of 0.456 and a relative viability (NCI-H2170; first compound 0.06325 µM) of 0.47. For the same molecule, the relative viability (NCI-H2170; first compound 0.2 µM) was 0.507, the relative viability (NCI-H1792; first compound 0.002 µM) was 0.521 and the relative viability (NCI-H1792; first compound 0.006325 µM) was 0.458. It also gave a relative viability (NCI-H1792; first compound 0.02 µM) of 0.429, a relative viability (NCI-H1792; first compound 0.06325 µM) of 0.078 and a relative viability (NCI-H1792; first compound 0.2 µM) of 0.0722.
